Our source for the IC50 values is patent publication US20260250320A1, “LIPIDATED PEPTIDE INHIBITORS OF INTERLEUKIN-23 RECEPTOR” (Janssen Pharmaceutica NV, priority 2023, published 2026).

*1 amine or outer side, *2 acyl side, *3 side chain or, on linkers, in order; H or OH if unused. Where a SMILES comes first, the peptide text is derived from it. Bridges are numbered along the chain shown (N, C = ends). Side-chain parts run from the residue outwards. [ ]: non-standard residue; d: D form. The star is where a group is joined. PEG12 = NCCOCCOCCOCCOCCOCCOCCOCCOCCOCCOCCOCCOCCC(=O)O; CH2CH2OCH2CH2OCH2CH2NMe3+ = C[N+](C)(C)CCOCCOCC*; Trp(7-Me) = Cc1cccc2c(C[C@H](N)C(=O)O)c[nH]c12; C20 diacid = O=C(O)CCCCCCCCCCCCCCCCCCC(=O)*; Abu(4-yl) = O=C([C@H](CC[*:3])N[*:1])[*:2]; C18 diacid = O=C(O)CCCCCCCCCCCCCCCCC(=O)*; γGlu = O=C(O)[C@H](CCC(=O)[*:2])N[*:1]; 2Nal = N[C@@H](Cc1ccc2ccccc2c1)C(=O)O; AEF = NCCOc1ccc(C[C@H](N)C(=O)O)cc1; X2 = C[N+](C)(C)C[C@@H](CC(=O)O)N*; 3Pal = N[C@@H](Cc1cccnc1)C(=O)O; Lys(Me) = CNCCCC[C@H](N)C(=O)O; Pen = CC(C)(S)[C@H](N)C(=O)O; Suc = O=C(CCC(=O)[*:2])[*:1]; Lauroyl = CCCCCCCCCCCC(=O)*; αMeC = C[C@](N)(CS)C(=O)O; Thp = NC1(C(=O)O)CCOCC1; X1 = C[N+](C)(C)CCCCC*; AEEA = NCCOCCOCC(=O)O; Sar = CNCC(=O)O

One may read the IC50 as the point on the concentration scale where inhibition reaches its midpoint. A low value points to greater potency.

In this experiment the target is T1, IL-23R (Homo sapiens, UniProt Q5VWK5).
T1 construct: HEK293 cells containing IL-23R, IL-12Rβ1 and a firefly luciferase reporter gene driven by a STAT-inducible promoter (Promega); host or cells: HEK293
T1 sequence (Q5VWK5 24-629): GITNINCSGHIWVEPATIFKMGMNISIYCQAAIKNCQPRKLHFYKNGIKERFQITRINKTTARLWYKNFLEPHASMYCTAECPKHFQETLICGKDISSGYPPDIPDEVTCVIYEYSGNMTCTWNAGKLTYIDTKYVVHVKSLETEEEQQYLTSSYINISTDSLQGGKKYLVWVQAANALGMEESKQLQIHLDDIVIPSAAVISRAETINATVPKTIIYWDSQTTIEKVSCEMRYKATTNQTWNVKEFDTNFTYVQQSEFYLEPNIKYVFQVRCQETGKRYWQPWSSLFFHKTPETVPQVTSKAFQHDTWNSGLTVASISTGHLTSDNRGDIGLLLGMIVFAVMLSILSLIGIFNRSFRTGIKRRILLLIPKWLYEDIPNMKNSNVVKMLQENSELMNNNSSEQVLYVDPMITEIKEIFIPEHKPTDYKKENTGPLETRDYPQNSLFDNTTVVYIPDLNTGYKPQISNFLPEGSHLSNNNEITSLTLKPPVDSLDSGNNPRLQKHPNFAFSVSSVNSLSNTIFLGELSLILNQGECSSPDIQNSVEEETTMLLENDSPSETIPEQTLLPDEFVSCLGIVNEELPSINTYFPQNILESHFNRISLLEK
In words: IL23R Reporter Assay. To be noted: HEK293 cells containing IL-23R, IL-12Rβ1 and STAT-inducible firefly luciferase reporter; 10 ng/mL IL-23 (EC90); 5 h. Type of experiment: cell-based. As for the experimental part:
Compounds were serially diluted in 100% (v/v) DMSO) and plated using an Echo acoustic dispenser (Labcyte) into 1536-well non-treated black assay plates (Corning #9146). 3 μL of HEK293 cells containing IL-23R, IL-12Rβ1 and a firefly luciferase reporter gene driven by a STAT-inducible promoter (Promega) were added to the plates (4000 cells/well), followed by 3 μL of 10 ng/mL IL-23 (equivalent to EC90 concentration). After 5 h at 37° C., 5% CO2, 95% relative humidity, cells were placed at 20° C. and treated with BioGlo reagent (Promega) according to the Manufacturer's instructions. Luminescence was measured on a Pherastar FSX (BMG LabTech). Data were normalized to IL-23 treatment (0% inhibition) and 30 μM of control inhibitor (100% inhibition), and IC50 values were determined using a 4-parameter Hill equation.
Background: A reporter such as luciferase makes a cellular process visible.
The molecule `CC(=O)N(C)CCCC[C@@H]1NC(=O)[C@H](Cc2c[nH]c3c(C)cccc23)NC(=O)[C@H]([C@@H](C)O)NC(=O)[C@H](CC(=O)N(C)C)NC(=O)[C@@H](NC(=O)CCOCCOCCOCCOCCOCCOCCOCCOCCOCCOCCOCCOCCNC(=O)CC[C@H](NC(=O)CCCCCCCCCCCCCCCCCCC(=O)O)C(=O)O)C(C)(C)SSC(C)(C)[C@@H](C(=O)N[C@@H](Cc2ccc(OCCCCC[N+](C)(C)C)cc2)C(=O)N[C@@H](Cc2ccc3ccccc3c2)C(=O)NC2(C(=O)N[C@@H](CCCCN(C)C(C)=O)C(=O)N[C@@H](CC(N)=O)C(=O)N[C@@H](Cc3cccnc3)C(=O)N(C)CC(=O)N(C)C)CCOCC2)NC1=O` [compound 94, HOC20gEPEG12CO-Pen(3)-N(N(Me)2)-T-7MeW-K(NMeAc)-Pen(3)-TMAPF-2Nal-THP-K(NMeAc)-N-3Pya-Sar-CON(Me)2] ({C20 diacid-γGlu-PEG12}-[Pen]D(NMe2)T[Trp(7-Me)][Lys(Me)](Ac)[Pen]Y(X1)[2Nal][Thp][Lys(Me)](Ac)N[3Pal][Sar]-NMe2; disulfide 1-6) came in with an IC50 of under 50 nM.
The molecule `CCCCCCCCCCCCCC(=O)N(C)CC(=O)N[C@@H](CO)C(=O)N(C)CC(=O)N[C@@H](CO)C(=O)N(C)CC(=O)N[C@@H](CO)C(=O)N(C)CC(=O)NCCCC[C@H](NC(=O)CN(C)C(=O)[C@H](Cc1cccnc1)NC(=O)[C@H](CC(N)=O)NC(=O)[C@H](CCC(=O)O)NC(=O)C1(NC(=O)[C@H](Cc2ccc3ccccc3c2)NC(=O)[C@H](Cc2ccc(OCCN)cc2)NC(=O)C2NC(=O)[C@H](CCCCNC(C)=O)NC(=O)[C@H](Cc3c[nH]c4c(C)cccc34)NC(=O)[C@H]([C@@H](C)O)NC(=O)[C@H](CC(N)=O)NC(=O)[C@@H](NC(C)=O)C(C)(C)SSC2(C)C)CCOCC1)C(N)=O` (stereo partly drawn) [compound 1, MeCO-Pen(3)-N-T-7MeW-K(Ac)-Pen(3)-AEF-2Nal-THP-E-N-3Pya-Sar-K(Sar-S-Sar-S-Sar-S-Sar-C14)-CONH2] gave an IC50 of under 50 nM.
Under `CC(=O)N(C)CCCC[C@@H]1NC(=O)[C@H](Cc2c[nH]c3c(C)cccc23)NC(=O)[C@H]([C@@H](C)O)NC(=O)[C@H](CC(=O)N(C)C)NC(=O)[C@@H](NC(=O)COCCOCCNC(=O)COCCOCCNC(=O)CC[C@H](NC(=O)CCCCCCCCCCCCCCCCC(=O)O)C(=O)O)C(C)(C)SSC(C)(C)[C@@H](C(=O)N[C@@H](Cc2ccc(OCCOCCOCC[N+](C)(C)C)cc2)C(=O)N[C@@H](Cc2ccc3ccccc3c2)C(=O)NC2(C(=O)N[C@@H](CCCCN(C)C(C)=O)C(=O)N[C@@H](CC(N)=O)C(=O)N[C@@H](Cc3cccnc3)C(=O)N(C)CC(=O)N(C)C)CCOCC2)NC1=O` [compound 155, HOC18gEPEG2PEG2CO-Pen(3)-N(N(Me)2)-T-7MeW-K(NMeAc)-Pen(3)-APEG3F-2Nal-THP-K(NMeAc)-N-3Pya-Sar-CON(Me)2] ({C18 diacid-γGlu-AEEA-AEEA}-[Pen]D(NMe2)T[Trp(7-Me)][Lys(Me)](Ac)[Pen]Y(CH2CH2OCH2CH2OCH2CH2NMe3+)[2Nal][Thp][Lys(Me)](Ac)N[3Pal][Sar]-NMe2; disulfide 1-6) stands under 50 nM; under `CC(=O)NCCCC[C@@H]1NC(=O)[C@H](Cc2c[nH]c3c(C)cccc23)NC(=O)[C@H]([C@@H](C)O)NC(=O)[C@H](CC(N)=O)NC(=O)[C@@H](NC(C)=O)C(C)(C)SSC(C)(C)[C@@H](C(=O)N[C@@H](Cc2ccc(OCCN)cc2)C(=O)N[C@@H](Cc2ccc3ccccc3c2)C(=O)NC2(C(=O)N[C@@H](CCC(=O)O)C(=O)N[C@@H](CC(N)=O)C(=O)N[C@@H](Cc3cccnc3)C(=O)N(C)CC(=O)N[C@@H](CCCCNC(=O)COCCOCCNC(=O)COCCOCCNC(=O)CC[C@H](NC(=O)CCCCCCCCCCCCCCCCCCC(=O)O)C(=O)O)C(=O)NCCOCCOCC[N+](C)(C)C)CCOCC2)NC1=O` [compound 93, MeCO-Pen(3)-N-T-7MeW-K(Ac)-Pen(3)-AEF-2Nal-THP-K(Ac)-N-3Pya-Sar-K(PEG2PEG2gEC20OH)-CONH(PEG3a)], 50 to 500 nM.
`CCCCCCCCCCCC(=O)N[C@@H](CCC(=O)NCCOCCOCC(=O)NCCOCCOCC(=O)N[C@H](CCCNC(=N)N)C(=O)N[C@H]1CCSC[C@@](C)(C(=O)N[C@@H](Cc2ccc(OCCN)cc2)C(=O)N[C@@H](Cc2ccc3ccccc3c2)C(=O)NC2(C(=O)N[C@@H](CCC(=O)O)C(=O)N[C@@H](CC(N)=O)C(=O)N[C@@H](Cc3cccnc3)C(=O)N(C)CC(N)=O)CCOCC2)NC(=O)[C@H](CCCCNC(C)=O)NC(=O)[C@H](Cc2c[nH]c3c(C)cccc23)NC(=O)[C@H]([C@@H](C)O)NC(=O)[C@H](CC(N)=O)NC1=O)C(=O)O` [compound 6, C12gEPEG2PEG2CO-r-Abu(1)-N-T-7MeW-K(Ac)-aMeC(1)-AEF-2Nal-THP-E-N-ePya-Sar CONH2] ({Lauroyl-γGlu-AEEA-AEEA}-[dR][Abu(4-yl)]NT[Trp(7-Me)]K(Ac)[αMeC][AEF][2Nal][Thp]EN[3Pal][Sar]-NH2; thioether 2-7) showed an IC50 of under 50 nM.
Regarding `CC(=O)NCCCC[C@@H]1NC(=O)[C@H](Cc2c[nH]c3c(C)cccc23)NC(=O)[C@H]([C@@H](C)O)NC(=O)[C@H](CC(N)=O)NC(=O)[C@@H](NC(C)=O)C(C)(C)SSC(C)(C)[C@@H](C(=O)N[C@@H](Cc2ccc(OCCN)cc2)C(=O)N[C@@H](Cc2ccc3ccccc3c2)C(=O)NC2(C(=O)N[C@@H](CCC(=O)O)C(=O)N[C@@H](CC(N)=O)C(=O)N[C@@H](Cc3cccnc3)C(=O)N(C)CC(=O)NCCOCCOCCOCCOCCOCCOCCOCCOCCOCCOCCOCCOCCNC(=O)CC[C@H](NC(=O)CCCCCCCCCCCCCCCCC(=O)O)C(=O)O)CCOCC2)NC1=O` [compound 135, MeCO-Pen(3)-N-T-7MeW-K(Ac)-Pen(3)-AEF-2Nal-THP-E-N-3Pya-Sar-CO(PEG12gEC18OH)], the IC50 was in the range of 50 to 500 nM.
Under `CC(=O)NCCCC[C@@H]1NC(=O)[C@H](Cc2c[nH]c3c(C)cccc23)NC(=O)[C@H]([C@@H](C)O)NC(=O)[C@H](CCCCNC(=O)CCC(=O)N[C@H](CC(=O)O)C[N+](C)(C)C)NC(=O)[C@@H](NC(=O)[C@@H](CCCNC(=N)N)NC(=O)COCCOCCNC(=O)COCCOCCNC(=O)CC[C@H](NC(=O)CCCCCCCCCCCCCCCCC(=O)O)C(=O)O)C(C)(C)SSC(C)(C)[C@@H](C(=O)N[C@@H](Cc2ccc(OCCN)cc2)C(=O)N[C@@H](Cc2ccc3ccccc3c2)C(=O)NC2(C(=O)N[C@@H](CCC(=O)O)C(=O)N[C@@H](CC(N)=O)C(=O)N[C@@H](Cc3cccnc3)C(=O)N(C)CC(N)=O)CCOCC2)NC1=O` [compound 47, HOC18gEPEG2PEG2CO-r-Pen(3)-K(d)-T-7MeW-K(Ac)-Pen(3)-AEF-2Nal-THP-E-N-3Pya-Sar-CONH2] ({C18 diacid-γGlu-AEEA-AEEA}-[dR][Pen]K([Suc-X2])T[Trp(7-Me)]K(Ac)[Pen][AEF][2Nal][Thp]EN[3Pal][Sar]-NH2; disulfide 2-7) stands under 50 nM.
